# Measured values from PubChem BioAssay (NCI).
#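 Five concentrations, 48 hours, 96-well plates. Definition used: TGI = concentration required for complete inhibition of growth.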
# What was measured:
# Experiment in all cases: NCI tumour cell line growth inhibition, 48 h
# [1] = tested on: DU-145 prostate
# [2] = tested on: SK-MEL-5 melanoma
# [3] = tested on: UACC-257 melanoma
# [4] = tested on: A498 renal
# [5] = tested on: SF-268 CNS
# [6] = tested on: CCRF-CEM leukemia
# [7] = tested on: MDA-MB-435
# [8] = tested on: MDA-N
# [9] = tested on: SF-539 CNS
# [10] = tested on: SK-OV-3 ovarian
# [11] = tested on: OVCAR-5 ovarian
# [12] = tested on: MCF7 breast
# [13] = tested on: A549 NSCLC
# [14] = tested on: MDA-MB-231 breast
# [15] = tested on: MOLT-4 leukemia
# [16] = tested on: RPMI-8226 leukemia
# [17] = tested on: CAKI-1 renal
# [18] = tested on: HCT-15 colon
# [19] = tested on: UACC-62 melanoma
# [20] = tested on: RXF 393 renal
# [21] = tested on: HCC-2998 colon
# [22] = tested on: COLO 205 colon
# [23] = tested on: HOP-92 NSCLC
# [24] = tested on: M14 melanoma
# [25] = tested on: SW-620 colon
# [26] = tested on: SNB-75 CNS
# [27] = tested on: NCI-H522 lung
# [28] = tested on: TK-10 renal
# [29] = tested on: HL-60(TB) leukemia
# [30] = tested on: OVCAR-3 ovarian
# [31] = tested on: ACHN renal
# [32] = tested on: HT29 colon
# [33] = tested on: KM12 colon
# [34] = tested on: SK-MEL-2 melanoma
# [35] = tested on: OVCAR-4 ovarian
# [36] = tested on: SR leukemia
# [37] = tested on: UO-31 renal
# [38] = tested on: PC-3 prostate
# [39] = tested on: SF-295 CNS
# [40] = tested on: EKVX NSCLC
# [41] = tested on: MALME-3M melanoma
# [42] = tested on: HOP-62 NSCLC
# [43] = tested on: SK-MEL-28 melanoma
# [44] = tested on: U251 CNS
# [45] = tested on: NCI-H460 lung
# [46] = tested on: NCI-H226 lung
# [47] = tested on: OVCAR-8 ovarian
# [48] = tested on: LOX IMVI melanoma
# [49] = tested on: IGROV1 ovarian
# [50] = tested on: T-47D breast
# [51] = tested on: 786-0 renal
# [52] = tested on: NCI-H23 lung
# [53] = tested on: K-562 leukemia
# [54] = tested on: HS 578T breast
# [55] = tested on: NCI/ADR-RES ovarian
# [56] = tested on: SNB-19 CNS
structure (smiles),measurement,setting,value
C/C(Sc1ccccc1)=C1/CCCN(Cc2ccccc2)C1,TGI,[1],> 100 µM
same,TGI,[2],28.6 µM
same,TGI,[3],44.6 µM
same,TGI,[4],> 100 µM
same,TGI,[5],> 100 µM
same,TGI,[6],46.4 µM
same,TGI,[7],87.7 µM
same,TGI,[8],> 100 µM
same,TGI,[9],> 100 µM
same,TGI,[10],> 100 µM
same,TGI,[11],67.5 µM
same,TGI,[12],57.5 µM
same,TGI,[13],> 100 µM
same,TGI,[14],76.5 µM
same,TGI,[15],39.4 µM
same,TGI,[16],43.3 µM
same,TGI,[17],> 100 µM
same,TGI,[18],42.5 µM
same,TGI,[19],47.6 µM
same,TGI,[20],36.3 µM
same,TGI,[21],53.3 µM
same,TGI,[22],32.9 µM
same,TGI,[23],51.9 µM
same,TGI,[24],35 µM
same,TGI,[25],> 100 µM
same,TGI,[26],86.3 µM
same,TGI,[27],38.8 µM
same,TGI,[28],60.4 µM
same,TGI,[29],32.6 µM
same,TGI,[30],38.8 µM
same,TGI,[31],> 100 µM
same,TGI,[32],> 100 µM
same,TGI,[33],98.2 µM
same,TGI,[34],34 µM
same,TGI,[35],> 100 µM
same,TGI,[36],35.7 µM
same,TGI,[37],40.9 µM
same,TGI,[38],59.9 µM
same,TGI,[39],50.9 µM
same,TGI,[40],> 100 µM
same,TGI,[41],28.6 µM
same,TGI,[42],61.4 µM
same,TGI,[43],83 µM
same,TGI,[44],57.8 µM
same,TGI,[45],96.1 µM
same,TGI,[46],41.6 µM
same,TGI,[47],> 100 µM
same,TGI,[48],31.8 µM
same,TGI,[49],> 100 µM
same,TGI,[50],33.5 µM
same,TGI,[51],50.3 µM
same,TGI,[52],79.5 µM
same,TGI,[53],38.6 µM
same,TGI,[54],41.4 µM
same,TGI,[55],74.1 µM
same,TGI,[56],> 100 µM
